Earlier results, collected in patent US6726673B1, “Methods and apparatus for improved administration of testosterone pharmaceuticals” (Zars, Inc., priority 1999, dated 2004).

Conditions: following intramuscular injection, absorbed gradually from the lipid tissue phase at the injection site

Compound: CCCCCCC(=O)O[C@H]1CC[C@H]2[C@@H]3CCC4=CC(=O)CC[C@]4(C)[C@H]3CC[C@]12C [testosterone enanthate]
- duration of action: 2-4 weeks
